Source: PubChem BioAssay (NCI)
Where “and” joins values, the source holds several entries; their conditions need not be identical. Equal entries are not always repeated.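 Five concentrations, 48 hours, 96-well plates. The concentration for 50% growth inhibition is given as GI50. The concentration for full growth arrest is given as TGI.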

Key:
Assay in all cases: NCI-60 cell line screen, 48 h
786-0 renal = system: 786-0 renal
BT-549 breast = system: BT-549 breast
CAKI-1 renal = system: CAKI-1 renal
DU-145 prostate = system: DU-145 prostate
HS 578T breast = system: HS 578T breast
M14 melanoma = system: M14 melanoma
MDA-MB-435 = system: MDA-MB-435
NCI-H522 lung = system: NCI-H522 lung
SF-539 CNS = system: SF-539 CNS
KM20L2 colon = system: KM20L2 colon
M19-MEL melanoma = system: M19-MEL melanoma

Row | Compound | TGI (786-0 renal) [µM] | TGI (BT-549 breast) [µM] | TGI (CAKI-1 renal) | TGI (DU-145 prostate) [µM] | TGI (HS 578T breast) [µM] | TGI (M14 melanoma) [µM] | TGI (MDA-MB-435) [µM] | TGI (NCI-H522 lung) | TGI (SF-539 CNS) | TGI (KM20L2 colon) | TGI (M19-MEL melanoma) | GI50 (DU-145 prostate) [µM] | GI50 (HS 578T breast) [µM] | GI50 (KM20L2 colon) | GI50 (M19-MEL melanoma) [µM] | GI50 (MDA-MB-435) [µM] | GI50 (NCI-H522 lung) | GI50 (CAKI-1 renal) [µM] | GI50 (SF-539 CNS) [µM]
1 | C/C=C/[P+](c1ccccc1)(c1ccccc1)c1ccccc1 | 37.6 | 3 | > 100 µM | 18.6 | 3.17 | 27.2 | 5.97 | 10.2 µM | 16.7 µM |  |  |  |  |  |  |  |  |  | 
2 | CN(C)c1ccc(/C=N\NC(=O)CSCC(=O)N/N=C/c2ccc(N(C)C)cc2)cc1 | > 100 | 80.4 | > 100 µM | > 100 | 82.1 | > 100 | > 100 | > 100 µM | > 100 µM |  |  |  |  |  |  |  |  |  | 
3 | O=c1ccc2cc(O)c(O)cc2o1 | > 100 | > 100 | > 100 µM | > 100 | > 100 | > 100 | > 100 | > 100 µM | > 100 µM |  |  |  |  |  |  |  |  |  | 
4 | NC(=O)CCCC(NCc1c2ccccc2nc2ccccc12)C(=O)O (centres undefined) | > 100 |  | 96.2 µM |  |  | > 100 |  | 67.7 µM | > 100 µM | > 100 µM | > 100 µM |  |  |  |  |  |  |  | 
5 | O=c1oc2ccccc2c2c(=O)c3ccc(OC/C(=N/O)c4ccc(Cl)cc4)cc3oc12 | 24.2 |  | 24 µM | 36.1 | 42.1 | 34 | 7.89 |  | 23.8 µM |  |  |  |  |  |  |  |  |  | 
6 | CN(C)CCNc1nc(-c2ccc3ccccc3c2)nc2nc[nH]c12 | 32.1 | 23.4 | 20.6 µM | 23.7 | 22.8 | 23.6 | 25 | 6.22 µM |  |  |  |  |  |  |  |  |  |  | 
7 | NC(N)=N/N=C/c1c(-c2ccccc2)nc2n1ccc1nc(-c3ccccc3)c(/C=N/N=C(N)N)n12 | > 100 | > 100 | > 100 µM | > 100 | > 100 | > 100 | > 100 | > 100 µM | > 100 µM |  |  |  |  |  |  |  |  |  | 
8 | Cc1ccc(S(=O)(=O)NCCSCCNS(=O)(=O)c2ccc(C)cc2)cc1 |  |  |  | > 100 | > 100 | > 100 | > 100 | > 100 µM |  |  |  |  |  |  |  |  |  |  | 
9 | O=S(=O)(Sc1ccc(Cl)cc1)c1ccc(Cl)cc1 | 29.5 |  | 40.5 µM |  |  | 32.5 |  | 31.1 µM | 27.7 µM | 34.1 µM | 35.6 µM |  |  |  |  |  |  |  | 
10 | CC(=O)Nc1ccccc1SCCSSCCSc1ccccc1NC(C)=O | 64.3 | > 100 | 83.4 µM | 88.7 |  | > 100 | 41.1 | 34.3 µM | 52.1 µM |  |  |  |  |  |  |  |  |  | 
11 | CC(=O)C(O)N1C(=O)C=CC1=O (centres undefined) |  | 24.8 |  |  |  |  |  |  |  | 32.8 µM and 3.51 µM | 30.4 µM and 17.6 µM | 11700 | 15800 | 17.9 µM and 1.9 µM | 16.4 | 10700 | > 25 µM and 13.5 µM |  | 
12 | CC1=NN(c2ccccc2)C(=O)/C1=C/c1ccc(O)cc1 | > 100 |  | > 100 µM | > 100 | > 100 | > 100 | > 100 |  | > 100 µM |  |  |  |  |  |  |  |  |  | 
13 | CCCCCCCSc1nc2c(C(=O)OCC)ncn2c2ccccc12 |  |  |  |  |  | > 100 |  |  |  | > 100 µM | > 100 µM |  |  |  |  |  |  |  | 
14 | CC1=C2C(=O)c3ccccc3C(=O)[C@H]2[C@H]2CCO[C@H]2O1 | 37.8 | 28.2 | 46 µM | 47 | > 100 | 40.2 | 39.8 | 32 µM | 43.9 µM |  |  |  |  |  |  |  |  |  | 
15 | CCCCCCNC(=O)c1cnc(Cl)cn1 | > 100 | 82.4 | 2.39 µM | 29.6 | 44.4 | 26 | 28.9 | 0.552 µM | 35.4 µM |  |  |  |  |  |  |  |  |  | 
16 | Cc1c2cc[n+](CCN3CCCCC3)cc2c(C)c2c1[nH]c1ccc(O)cc12 | 21.6 | 28.7 | 24.3 µM and > 100 µM | 11.5 | > 100 | 50.4 | 34.5 | 53.5 µM and 16.2 µM | 34.5 µM and > 58.8 µM | 34.5 µM | 4.93 µM |  |  |  |  |  |  | 21.1 | 7.38
17 | O=C1c2c(c3c4ccccc4[nH]c3c3ccc4ccccc4c23)C(=O)N1CCN1CCCCC1 |  |  |  | 14.5 | 5.71 |  | 3.26 | 5.36 µM | 3.21 µM |  |  | 1.05 | 2.04 |  |  | 1.72 | 1.5 µM |  | 1.41
18 | CC1C(O)C2(Oc3cc4c(c5c3[C@@H](CC5O)[C@H]2C)CCC2Cc3nc5c(nc3C[C@@]42C)CC2CCC3C4=C[C@H]6O[C@@]7(O[C@@](C)(CO)C[C@@H]7O)C(C)[C@@]6(O)[C@]4(C)[C@@H](O)CC3[C@]2(C)C5)OC1(C)C (some centres undefined) |  |  | 0.975 µM |  |  |  |  | 0.42 µM | 0.302 µM | 0.491 µM | > 3.67 µM |  |  |  |  |  |  |  | 
19 | COc1ccc(-c2c3c(nc4nc(SCCc5ccccc5)nc(N)c24)CCCC3)cc1OC |  | > 100 | > 100 µM | > 100 | > 100 | > 100 | > 100 |  | > 100 µM |  |  |  |  |  |  |  |  |  | 
20 | CC12CCC(C(=O)OC1=O)C(C)(C)O2 (centres undefined) |  | > 100 | > 100 µM | > 100 | > 100 | > 100 | > 100 | > 100 µM | > 100 µM |  |  |  |  |  |  |  |  |  | 
21 | CN(C)CCCNc1ccc2ncn3c4ccccc4c(=O)c1c23 | 33.2 |  |  |  |  | 41.6 |  | > 100 µM | 90.8 µM | 30.4 µM | 30.6 µM |  |  |  |  |  |  |  | 
22 | COc1ccc([C@@H]2ON(C)[C@H]3CN(C)C(=O)[C@@H]23)cc1 |  |  | > 100 µM | > 100 | > 100 | > 100 |  | > 100 µM |  |  |  |  |  |  |  |  |  |  | 
23 | CCOC(=O)/C(Cl)=C(\C)Nc1nc2c(ccc3ccccc32)s1 |  | > 100 | > 100 µM | 46.6 | > 100 | > 100 |  | 70.9 µM |  |  |  |  |  |  |  |  |  |  | 
24 | CN1CCCCC1CCN1CCCCC1 (centres undefined) | > 100 | > 100 | > 100 µM | > 100 | > 100 | > 100 | > 100 | > 100 µM |  |  |  |  |  |  |  |  |  |  | 
25 | NC(=O)NN=C(CS)CS |  |  | 42.9 µM |  |  |  |  | 55.2 µM | 40.7 µM | 36.4 µM | 37.1 µM |  |  |  |  |  |  |  | 
26 | Cc1cc(NCc2cc(Nc3ccnc4cc(Cl)ccc34)ccc2F)nc(N2CCCC2)n1 |  |  | 2.98 µM | 4.46 | 4.6 |  | 3.01 |  |  |  |  | 1.94 | 1.61 |  |  | 1.61 |  | 1.47 | 
27 | O=NC1C(Cl)C2CC1C1C(Br)C(Br)CC21 (centres undefined) | > 100 |  | > 100 µM | > 100 | > 100 | > 100 | > 100 | > 100 µM | > 100 µM |  |  |  |  |  |  |  |  |  | 
